From ChEMBL document CHEMBL1201862, “PubChem BioAssay data set” (2004)
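Values below derive from 48-hour exposures of cells grown in 96-well plates, with endpoints linearly interpolated between the two concentrations bracketing the appropriate inhibition level. GI50 marks 50% less growth.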 Active and inactive are the calls of the source. No stated cut-off is given here; in the data, active = GI50 up to about 1.1 µM and inactive = higher.

Legend:
Assay in all cases: inhibition of tumour cell growth, NCI panel, 48 h
[1] = tested on: A549
[2] = tested on: OVCAR-5
[3] = tested on: T47D
[4] = tested on: MDA-N
[5] = tested on: RXF 393
[6] = tested on: OVCAR-4
[7] = tested on: DU-145
[8] = tested on: UACC-257
[9] = tested on: LOX IMVI
[10] = tested on: SF-268
[11] = tested on: SK-MEL-28
[12] = tested on: MOLT-4
[13] = tested on: HCC 2998
[14] = tested on: HOP-62
[15] = tested on: OVCAR-3
[16] = tested on: TK-10
[17] = tested on: K562
[18] = tested on: SNB-19
[19] = tested on: SR
[20] = tested on: SF-539

Structure (SMILES)	GI50 [1]	GI50 [2]	GI50 [3]	GI50 [4]	GI50 [5]	GI50 [6]	GI50 [7]	GI50 [8]	GI50 [9]	GI50 [10]	GI50 [11]	GI50 [12]	GI50 [13]	GI50 [14]	GI50 [15]	GI50 [16]	GI50 [17]	GI50 [18]	GI50 [19]	GI50 [20]
CC(C)CN(CC#N)CC(C)C	> 100 µM (inactive)	> 100 µM (inactive)	> 100 µM (inactive)	> 100 µM (inactive)	> 100 µM (inactive)	> 100 µM (inactive)	> 100 µM (inactive)	> 100 µM (inactive)	> 100 µM (inactive)	> 100 µM (inactive)	> 100 µM (inactive)	> 100 µM (inactive)	> 100 µM (inactive)	> 100 µM (inactive)	> 100 µM (inactive)	> 100 µM (inactive)	> 100 µM (inactive)	> 100 µM (inactive)		
CC(CC(C#N)(c1ccccc1)c1ccccc1)N1CCCCC1 (stereo not given)	44 µM (inactive)	33.1 µM (inactive)	49.7 µM (inactive)	19.1 µM (inactive)	28.7 µM (inactive)	39.6 µM (inactive)	59.8 µM (inactive)	14.6 µM (inactive)	17.3 µM (inactive)	48.9 µM (inactive)	23.1 µM (inactive)	22.4 µM (inactive)	15.4 µM (inactive)	29.2 µM (inactive)	17.6 µM (inactive)	20.6 µM (inactive)	19.3 µM (inactive)	80.5 µM (inactive)		
Cc1cccc(/N=N/C(=O)NNc2cccc(C)c2C)c1C	31.2 µM (inactive)	37 µM (inactive)	27.2 µM (inactive)	36.3 µM (inactive)		30.8 µM (inactive)	37 µM (inactive)	34.7 µM (inactive)	25.8 µM (inactive)	34 µM (inactive)	43.6 µM (inactive)	> 10 µM (inactive)	15 µM (inactive)	20.7 µM (inactive)	45.4 µM (inactive)	37.7 µM (inactive)	33.7 µM (inactive)	45.8 µM (inactive)	33.2 µM (inactive)	
Cc1cc2c(cc1Cl)SC(NNc1ccc([N+](=O)[O-])cc1)=NS2(=O)=O	> 10 µM (inactive)	> 10 µM (inactive)	> 10 µM (inactive)	> 10 µM (inactive)	> 10 µM (inactive)	> 10 µM (inactive)	> 10 µM (inactive)	> 10 µM (inactive)	> 10 µM (inactive)	> 10 µM (inactive)	> 10 µM (inactive)	> 10 µM (inactive)	> 10 µM (inactive)	> 10 µM (inactive)	> 10 µM (inactive)	> 10 µM (inactive)	> 10 µM (inactive)	> 10 µM (inactive)		> 10 µM (inactive)
CSc1nc(SC)c2c(CN=[N+]=[N-])c(Br)n(Cc3ccccc3)c2n1	> 100 µM (inactive)	> 100 µM (inactive)	11.7 µM (inactive)	99.3 µM (inactive)		76.7 µM (inactive)	> 100 µM (inactive)		66.1 µM (inactive)	> 100 µM (inactive)	> 100 µM (inactive)	> 100 µM (inactive)	> 100 µM (inactive)	92.3 µM (inactive)	> 100 µM (inactive)	> 100 µM (inactive)		> 100 µM (inactive)	26 µM (inactive)	32.8 µM (inactive)
Nc1ncnc2c1ccn2CC#CCO	> 100 µM (inactive)	> 100 µM (inactive)	> 100 µM (inactive)	> 100 µM (inactive)	97.3 µM (inactive)	> 100 µM (inactive)	> 100 µM (inactive)	> 100 µM (inactive)	> 100 µM (inactive)	> 100 µM (inactive)	> 100 µM (inactive)	> 100 µM (inactive)	> 100 µM (inactive)	> 100 µM (inactive)	> 100 µM (inactive)	> 100 µM (inactive)	> 100 µM (inactive)	> 100 µM (inactive)		> 100 µM (inactive)
COc1ccc2c(c1)CC1(O)COc3cc(OC)ccc3C1O2 (stereo not given)	> 100 µM (inactive)	> 100 µM (inactive)	85.7 µM (inactive)	> 100 µM (inactive)		63.7 µM (inactive)	> 100 µM (inactive)	61.8 µM (inactive)	> 100 µM (inactive)	> 100 µM (inactive)		48.4 µM (inactive)	77.8 µM (inactive)	> 100 µM (inactive)	> 100 µM (inactive)	> 100 µM (inactive)			> 100 µM (inactive)	> 100 µM (inactive)
C/C(=N\c1ccc(Cl)cc1)c1ccncc1	4.73 µM (inactive)	> 100 µM (inactive)	0.809 µM (active)	> 100 µM (inactive)	> 100 µM (inactive)	> 100 µM (inactive)	> 100 µM (inactive)	22.6 µM (inactive)	> 100 µM (inactive)	53.5 µM (inactive)	5.14 µM (inactive)	3.4 µM (inactive)	> 100 µM (inactive)	> 100 µM (inactive)	41 µM (inactive)		> 100 µM (inactive)	> 100 µM (inactive)		4.31 µM (inactive)
CC1=C(C)C1[N+](=O)[O-]	> 100 µM (inactive)	> 100 µM (inactive)	> 100 µM (inactive)	> 100 µM (inactive)	> 100 µM (inactive)	> 100 µM (inactive)	> 100 µM (inactive)	> 100 µM (inactive)	> 100 µM (inactive)	> 100 µM (inactive)	> 100 µM (inactive)	> 100 µM (inactive)	> 100 µM (inactive)	> 100 µM (inactive)	> 100 µM (inactive)	> 100 µM (inactive)	> 100 µM (inactive)	> 100 µM (inactive)		> 100 µM (inactive)
CN(C(=S)Cc1ccc(Cl)c(Cl)c1)C1CCCC[C@@H]1N1CCCC1 (stereo not given in full)	63.4 µM (inactive)	59.8 µM (inactive)	38 µM (inactive)	17.8 µM (inactive)		84.9 µM (inactive)	> 100 µM (inactive)				16.7 µM (inactive)	51.8 µM (inactive)		54.2 µM (inactive)	26.1 µM (inactive)	27.9 µM (inactive)	61 µM (inactive)	> 100 µM (inactive)		55.7 µM (inactive)
O=[N+]([O-])c1ccc(Cl)cc1-n1nc(-c2ccccc2)cc1-c1ccccc1	> 100 µM (inactive)	> 100 µM (inactive)	22.3 µM (inactive)	> 100 µM (inactive)		> 100 µM (inactive)	> 100 µM (inactive)	> 100 µM (inactive)		> 100 µM (inactive)	> 100 µM (inactive)	> 100 µM (inactive)	> 100 µM (inactive)	> 10 µM (inactive)	> 100 µM (inactive)	> 100 µM (inactive)	> 100 µM (inactive)	> 100 µM (inactive)	> 100 µM (inactive)	50.5 µM (inactive)
Nc1nc2c(c(=O)[nH]1)C(c1ccccc1)CC(=O)N2 (stereo not given)	> 100 µM (inactive)	> 100 µM (inactive)	> 100 µM (inactive)	> 100 µM (inactive)		> 100 µM (inactive)	> 100 µM (inactive)	> 100 µM (inactive)	> 100 µM (inactive)	> 100 µM (inactive)	> 100 µM (inactive)	> 100 µM (inactive)	> 100 µM (inactive)	> 100 µM (inactive)	> 100 µM (inactive)	> 100 µM (inactive)	> 100 µM (inactive)	> 100 µM (inactive)	> 100 µM (inactive)	> 100 µM (inactive)
O=C1N[C@H](C(=O)O)[C@@H](c2ccc(OCc3ccccc3)cc2)O1	81.5 µM (inactive)	> 100 µM (inactive)	26.3 µM (inactive)	> 100 µM (inactive)	12.9 µM (inactive)	29.7 µM (inactive)	35.5 µM (inactive)	> 100 µM (inactive)		25.4 µM (inactive)	> 100 µM (inactive)	> 100 µM (inactive)	> 100 µM (inactive)	13.6 µM (inactive)	92.5 µM (inactive)	27.4 µM (inactive)	> 100 µM (inactive)	17.7 µM (inactive)		
Cc1ccc(C(=O)Oc2ccccc2)cc1/N=N/N(C)C	> 100 µM (inactive)	> 100 µM (inactive)	71.8 µM (inactive)	> 100 µM (inactive)		> 86.9 µM (inactive)	> 100 µM (inactive)	> 100 µM (inactive)	59.8 µM (inactive)	> 87.7 µM (inactive)	> 100 µM (inactive)	> 100 µM (inactive)	> 100 µM (inactive)	> 100 µM (inactive)	43.4 µM (inactive)	> 100 µM (inactive)	76.4 µM (inactive)	> 92.3 µM (inactive)	> 100 µM (inactive)	> 100 µM (inactive)
CC1(CCCO)CCCCCCCCCC(C)(CCCO)C1=O (stereo not given)	87.3 µM (inactive)	> 100 µM (inactive)	> 100 µM (inactive)	> 100 µM (inactive)	> 100 µM (inactive)	> 100 µM (inactive)	> 100 µM (inactive)	> 100 µM (inactive)	> 100 µM (inactive)	> 100 µM (inactive)	> 100 µM (inactive)	> 100 µM (inactive)	> 100 µM (inactive)	> 100 µM (inactive)	> 100 µM (inactive)		> 100 µM (inactive)	> 100 µM (inactive)		
Cc1ccc(CC2(OCCN(C)C)CCC(C(C)(C)C)CC2)cc1 (stereo not given)	7 µM (inactive)	3.3 µM (inactive)	2.68 µM (inactive)	2.28 µM (inactive)		5.13 µM (inactive)	5.47 µM (inactive)	2.09 µM (inactive)	1.63 µM (inactive)	9.33 µM (inactive)	1.91 µM (inactive)	2.04 µM (inactive)	1.9 µM (inactive)	2.55 µM (inactive)	11.9 µM (inactive)	6.87 µM (inactive)	1.87 µM (inactive)	5.28 µM (inactive)	2.08 µM (inactive)	3.26 µM (inactive)
